pEC50: −log10 of the molar value. Where two headings read alike, the source gives them in different places.
System: HBV
Assay: PHH screening protocol: HBsAg and HBeAg levels by MSD ELISA
Type: cell-based, Hepatitis B Virus
Conditions: for pEC50: Hepatitis B virus
Protocol: HBV antiviral activity was assessed in primary human hepatocytes (PHH) in a 96-well format. PHH were (Life Technologies, Chicago, 11) plated on collagen coated tissue culture plates using Plating Media containing William's Medium E supplemented with 1% Penicillin/Streptomycin, 4 μg/mL human recombinant insulin, 2 mM glutamax, 15 mM Hepes, 1 μM dexamethasone and 5% fetal bovine serum (Life Technologies, Cat#A12176-01 Life Technologies, Chicago, Ill.). After a 4-hour incubation at 37° C., cells were switched to Maintenance Media (Cat#CM4000-A15564 Life Technologies, Chicago, Ill.) containing William's Medium E supplemented with 0.5% Penicillin/Streptomycin, 6.25 μg/mL human recombinant insulin, 6.25 μg/mL human transferrin, 6.25 ng/mL selenous acid, 1.25 mg/mL bovine serum albumin, 5.35 μg/mL linoleic acid, 2 mM glutamax, 15 mM Hepes, 0.1 μM dexamethasone, 2% fetal bovine serum, and 2% DMSO (Cat#D2650 Sigma, St. Louis, Mo.). On the next day, cells were infected with approximately 500 genome equivalent of selected HBV clinical isolates (21P (GTA), 32P (GTA), 91P (GTA), AD38 (GTD), 65P (GTD) or 30P (GTE); ProteoGenex, Culver City, Calif.) per cell in Maintenance Media supplemented with 4% PEG 8000 (Cat#V3011 Promega, Madison, Wis.). After 24 hour incubation cells were washed three times with William's Medium E and fed with fresh Maintenance Media. Small molecule inhibitors targeting KDMs were serially diluted in Maintenance Media and added to cells at 3 days post infection (p.i.). Media with compounds was replenished every 2-3 days. Media collected on various days was used for determination of HBsAg and HBeAg levels by MSD ELISA, and HBV RNA by qPCR. All data were converted into percentages of the untreated control and non-linear regression was performed to calculate EC50 or CC50 values.

## CCOC(=O)c1ccnc(CNCC(=O)N(CC)CCN(C)C)c1 [Example 8]
336 h, read-out: HBeAg EC50, virus 30P, PHH donor 4239, d 14, compound removed after 14 days of treatment
  pEC50: 5.37
336 h, read-out: HBeAg EC50, virus 30P, PHH donor 4239, d 17, compound removed after 14 days of treatment
  pEC50: 6.85
336 h, read-out: HBeAg EC50, virus 30P, PHH donor 4239, d 20, compound removed after 14 days of treatment
  pEC50: 6.95
336 h, read-out: HBeAg EC50, virus 30P, PHH donor 4239, d 25, compound removed after 14 days of treatment
  pEC50: 7.82
336 h, read-out: HBeAg EC50, virus 30P, PHH donor 4239, d 31, compound removed after 14 days of treatment
  pEC50: 7.44
336 h, read-out: HBeAg EC50, virus 30P, PHH donor 8130, d 14, compound removed after 14 days of treatment
  pEC50: 6.50
336 h, read-out: HBeAg EC50, virus 30P, PHH donor 8130, d 17, compound removed after 14 days of treatment
  pEC50: 7.62
336 h, read-out: HBeAg EC50, virus 30P, PHH donor 8130, d 20, compound removed after 14 days of treatment
  pEC50: 7.70
336 h, read-out: HBeAg EC50, virus 30P, PHH donor 8130, d 25, compound removed after 14 days of treatment
  pEC50: 8.70
336 h, read-out: HBeAg EC50, virus 30P, PHH donor 8130, d 31, compound removed after 14 days of treatment
  pEC50: 8.70
336 h, read-out: HBeAg EC50, virus AD38, PHH donor 4239, d 14, compound removed after 14 days of treatment
  pEC50: < 4.82
336 h, read-out: HBeAg EC50, virus AD38, PHH donor 4239, d 17, compound removed after 14 days of treatment
  pEC50: 5.78
336 h, read-out: HBeAg EC50, virus AD38, PHH donor 4239, d 20, compound removed after 14 days of treatment
  pEC50: 6.17
336 h, read-out: HBeAg EC50, virus AD38, PHH donor 4239, d 25, compound removed after 14 days of treatment
  pEC50: 6.96
336 h, read-out: HBeAg EC50, virus AD38, PHH donor 4239, d 31, compound removed after 14 days of treatment
  pEC50: 6.70
336 h, read-out: HBeAg EC50, virus AD38, PHH donor 8130, d 14, compound removed after 14 days of treatment
  pEC50: 5.62
336 h, read-out: HBeAg EC50, virus AD38, PHH donor 8130, d 17, compound removed after 14 days of treatment
  pEC50: 6.08
336 h, read-out: HBeAg EC50, virus AD38, PHH donor 8130, d 20, compound removed after 14 days of treatment
  pEC50: 6.72
336 h, read-out: HBeAg EC50, virus AD38, PHH donor 8130, d 25, compound removed after 14 days of treatment
  pEC50: 7.52
336 h, read-out: HBeAg EC50, virus AD38, PHH donor 8130, d 31, compound removed after 14 days of treatment
  pEC50: 8.00
336 h, read-out: HBsAg EC50, virus 30P, PHH donor 4239, d 14, compound removed after 14 days of treatment
  pEC50: < 4.82
336 h, read-out: HBsAg EC50, virus 30P, PHH donor 4239, d 17, compound removed after 14 days of treatment
  pEC50: 6.68
336 h, read-out: HBsAg EC50, virus 30P, PHH donor 4239, d 20, compound removed after 14 days of treatment
  pEC50: 7.59
336 h, read-out: HBsAg EC50, virus 30P, PHH donor 4239, d 25, compound removed after 14 days of treatment
  pEC50: 7.55
336 h, read-out: HBsAg EC50, virus 30P, PHH donor 4239, d 31, compound removed after 14 days of treatment
  pEC50: 7.49
336 h, read-out: HBsAg EC50, virus 30P, PHH donor 8130, d 14, compound removed after 14 days of treatment
  pEC50: 9.00
336 h, read-out: HBsAg EC50, virus 30P, PHH donor 8130, d 17, compound removed after 14 days of treatment
  pEC50: 7.72
336 h, read-out: HBsAg EC50, virus 30P, PHH donor 8130, d 20, compound removed after 14 days of treatment
  pEC50: 8.52
336 h, read-out: HBsAg EC50, virus 30P, PHH donor 8130, d 25, compound removed after 14 days of treatment
  pEC50: 8.70
336 h, read-out: HBsAg EC50, virus 30P, PHH donor 8130, d 31, compound removed after 14 days of treatment
  pEC50: 8.70
336 h, read-out: HBsAg EC50, virus AD38, PHH donor 4239, d 14, compound removed after 14 days of treatment
  pEC50: 5.20
336 h, read-out: HBsAg EC50, virus AD38, PHH donor 4239, d 17, compound removed after 14 days of treatment
  pEC50: 6.07
336 h, read-out: HBsAg EC50, virus AD38, PHH donor 4239, d 20, compound removed after 14 days of treatment
  pEC50: 6.52
336 h, read-out: HBsAg EC50, virus AD38, PHH donor 4239, d 25, compound removed after 14 days of treatment
  pEC50: 6.43
336 h, read-out: HBsAg EC50, virus AD38, PHH donor 4239, d 31, compound removed after 14 days of treatment
  pEC50: 6.82
336 h, read-out: HBsAg EC50, virus AD38, PHH donor 8130, d 14, compound removed after 14 days of treatment
  pEC50: 5.70
336 h, read-out: HBsAg EC50, virus AD38, PHH donor 8130, d 17, compound removed after 14 days of treatment
  pEC50: 6.04
336 h, read-out: HBsAg EC50, virus AD38, PHH donor 8130, d 20, compound removed after 14 days of treatment
  pEC50: 7.09
336 h, read-out: HBsAg EC50, virus AD38, PHH donor 8130, d 25, compound removed after 14 days of treatment
  pEC50: 7.10
336 h, read-out: HBsAg EC50, virus AD38, PHH donor 8130, d 31, compound removed after 14 days of treatment
  pEC50: 7.92
408 h, read-out: HBsAg EC50, virus 21P (GTA), PHH 4239, day 17 p.i.
  pEC50: 6.15
408 h, read-out: HBsAg EC50, virus 21P (GTA), PHH 8130, day 17 p.i.
  pEC50: 6.70
408 h, read-out: HBsAg EC50, virus 21P (GTA), PHH 8181, day 17 p.i.
  pEC50: 7.70
408 h, read-out: HBsAg EC50, virus 30P (GTE), PHH 4239, day 17 p.i.
  pEC50: 6.52
408 h, read-out: HBsAg EC50, virus 30P (GTE), PHH 8130, day 17 p.i.
  pEC50: 6.70
408 h, read-out: HBsAg EC50, virus 30P (GTE), PHH 8181, day 17 p.i.
  pEC50: > 8.30
408 h, read-out: HBsAg EC50, virus 32P (GTA), PHH 4239, day 17 p.i.
  pEC50: 7.52
408 h, read-out: HBsAg EC50, virus 32P (GTA), PHH 8130, day 17 p.i.
  pEC50: 7.10
408 h, read-out: HBsAg EC50, virus 32P (GTA), PHH 8181, day 17 p.i.
  pEC50: > 8.70
408 h, read-out: HBsAg EC50, virus 65P (GTD), PHH 4239, day 17 p.i.
  pEC50: 6.52
408 h, read-out: HBsAg EC50, virus 65P (GTD), PHH 8130, day 17 p.i.
  pEC50: 5.62
408 h, read-out: HBsAg EC50, virus 65P (GTD), PHH 8181, day 17 p.i.
  pEC50: > 8.70
408 h, read-out: HBsAg EC50, virus 91P (GTA), PHH 4239, day 17 p.i.
  pEC50: 7.22
408 h, read-out: HBsAg EC50, virus 91P (GTA), PHH 8130, day 17 p.i.
  pEC50: 7.52
408 h, read-out: HBsAg EC50, virus 91P (GTA), PHH 8181, day 17 p.i.
  pEC50: > 8.22
408 h, read-out: HBsAg EC50, virus AD38 (GTD), PHH 4239, day 17 p.i.
  pEC50: 5.70
408 h, read-out: HBsAg EC50, virus AD38 (GTD), PHH 8130, day 17 p.i.
  pEC50: 5.85
408 h, read-out: HBsAg EC50, virus AD38 (GTD), PHH 8181, day 17 p.i.
  pEC50: > 8.30
read-out: EC50 values (HBsAg), PHH donors 4239 and 8130, across patient viruses
  pEC50: 5.62 to 7.52
read-out: HBeAg EC50, D 8, PHH donor 8181, virus 21p
  pEC50: < 4.30
read-out: HBeAg EC50, D 13, PHH donor 8181, virus 21p
  pEC50: 6.80
read-out: HBeAg EC50, D 17, PHH donor 8181, virus 21p
  pEC50: > 7.70
read-out: HBeAg EC50, D 22, PHH donor 8181, virus 21p
  pEC50: > 7.70
read-out: HBeAg EC50, D 27, PHH donor 8181, virus 21p
  pEC50: > 7.70
read-out: HBeAg EC50, D 31, PHH donor 8181, virus 21p
  pEC50: > 7.70
read-out: HBeAg EC50, HBV-infected PHH
  pEC50: 6.73
read-out: HBsAg EC50, D 8, PHH donor 8181, virus 21p
  pEC50: < 4.30
read-out: HBsAg EC50, D 13, PHH donor 8181, virus 21p
  pEC50: 6.82
read-out: HBsAg EC50, D 17, PHH donor 8181, virus 21p
  pEC50: > 7.70
read-out: HBsAg EC50, D 22, PHH donor 8181, virus 21p
  pEC50: > 7.70
read-out: HBsAg EC50, D 27, PHH donor 8181, virus 21p
  pEC50: > 7.70
read-out: HBsAg EC50, D 31, PHH donor 8181, virus 21p
  pEC50: > 7.70
read-out: HBsAg EC50, HBV-infected PHH
  pEC50: 7.17
PHH donor 8181
  inhibition of HBV HBsAg and HBeAg secretion compared to untreated cells: more than 10 fold
PHH donor 8181 infected with patient virus 21p (GTA)
  time dependency of anti HBV activity: time dependent

— US20160303095A1, “METHODS OF TREATING HEPATITIS B VIRUS” (Gilead Sciences, Inc., priority 2015, published 2016)
